Experiments:
[1] = test system: EA reactive antibody (IgG) in infectious mononucleosis (IM) sera; assay: ELISA, EA peptides with EBV infectious mononucleosis sera; format: binding, human; details: for ELISA result, peptides with and without extensions: EA positive EBV IM acute serum; for O.D.: 420 nm
Procedure: ELISA. The ELISA for measuring specific antibodies to p17, p50 or to the synthetic peptides was performed as previously described in detail (Luka et al., J. Immunol. Methods, 67:145-156, 1984). Aliquots of different antigen concentrations were diluted in 0.5M Na2CO3 buffer, pH 9.5, added to wells in polystyrene microtiter plates (Linbro) and the plates incubated overnight at 4° C. Following this incubation period, the plates were washed 5× with Tris-HCl, pH 7.4, containing 0.05% Tween 20, 50 mM NaCl and 100 mg per liter albumin (Sigma) and dried for 20 minutes at room temperature. The plates were screened with different anti-EA-R or EA-D antibody positive human sera and the monoclonal antibody to p17 or p50 to identify the optimal concentration of antigen to be used in the serological studies. Alkaline-phosphatase-labelled goat anti-human IgG (Sigma) or goat anti-mouse IgG (Sigma) was used as the indicator system.
For the testing of human sera for antibodies to native p17, p50 or to the synthetic peptides, sera were diluted 1:10 in ELISA buffer, added in 0.1 ml volumes to wells coated with optimal concentrations of antigen and the plates were incubated for 60 minutes at room temperature. After 4 washes with ELISA buffer, 100 μl of alkaline phosphatase-labelled goat anti-human IgG in ELISA buffer were added to each well and the plates were incubated at room temperature for 1 hour. Following four more washes in buffer, the enzyme reaction was performed by dissolving 1 mg per ml of Sigma alkaline phosphatase substrate in 1M diethanolamine buffer, pH 10.4, containing 1 mM MgCl2 and 0.1 mM ZnCl2, and 100 μl of the mixture was then added to each well. The reaction was allowed to proceed for 30 minutes at 37° C. and then the plates were screened directly with a microplate reader, TITERTEK MULTISKAN MC (Flow), at 420 nm. Readings above 0.1 which was 2× the background noted with antibody-negative sera were considered positive reactions.
When the entire 50.10 peptide was tested with 1M sera, 24/32 or 75% of the sera contained EA-D reactive antibody (IgG) (Table 4).
Serological reactivity of EA peptides p17.1 and p50.1 which contained additional amino acids on their amino and carboxy termini was tested on EBV IM acute sera which was EA positive. The ELISA results shown in Table 5 indicate that the additional amino acids improved reactivity for both EA peptides.
Immunofluorescence assays (IFA) were performed as described by Henle, et al. (Int. J. Cancer, 8:272-282, 1971). Western blot analysis was done by methods commonly used in the art (See for example, Coligan, et al., Current Protocols in Immunology, Wiley Interscience, 1991, Unit 12). Samples of EBV-infected cell lysates (P3HR-1) were tested with human whole antiserum from positive humans (Pearson, et al., Virology, 160:151-161, 1987). A comparison was made between EA serology by IFA, using the EA-D 50.1 peptide antisera, and ELISA serology using 50.1 peptide (see Example 2).

[2] = test system: antibodies to peptides 50.10 (EA-D) and 17.1 (EA-R) in sequential sera; assay: IgG ELISA on sequential sera of a patient with acute infectious mononucleosis; format: binding, human; details: sera at 1.20 dilution, (+) >0.25
From the text: The early antigen D-R transition was followed in a patient during a course of acute infectious mononucleosis. Antibodies to peptides 50.10 (EA-D) and 17.1 (EA-R) were detected by ELISAs on specimens collected over a six month duration. […] Therefore, the peptides of the invention are useful for monitoring the course of EBV-associated disease in a patient.

[3] = 32 IM sera, values >0.5 positive (O.D. 420 nm)

ETFTETWNRFITHTE [p17.1, synthetic peptide from 17 Kd early antigen (EA-R) region of EBV]
% Positive [1, 3]: 38% | IM sera positive / tested [1, 3]: 12/32 | ELISA result, peptides with and without extensions ([1]; sample no. 2241): 0.282 | ELISA result, peptides with and without extensions ([1]; sample no. 12498): 0.637 | ELISA result, peptides with and without extensions ([1]; sample no. 12836): 0.692 | SCORE ([1]; IM serum sample no. 2241): − (Values >0.5 were considered positive (O.D. readings at 420 nm).) | SCORE ([1]; IM serum sample no. 11984): + (Values >0.5 were considered positive (O.D. readings at 420 nm).) | O.D. ([1]; IM serum sample no. 11984): 0.542 | SCORE ([1]; IM serum sample no. 12005): + (Values >0.5 were considered positive (O.D. readings at 420 nm).) | O.D. ([1]; IM serum sample no. 12005): 0.981 | SCORE ([1]; IM serum sample no. 12288): + (Values >0.5 were considered positive (O.D. readings at 420 nm).) | O.D. ([1]; IM serum sample no. 12288): 0.700 | SCORE ([1]; IM serum sample no. 12407): + (Values >0.5 were considered positive (O.D. readings at 420 nm).) | O.D. ([1]; IM serum sample no. 12407): 0.787 | SCORE ([1]; IM serum sample no. 12409): + (Values >0.5 were considered positive (O.D. readings at 420 nm).) | O.D. ([1]; IM serum sample no. 12409): 0.592 | SCORE ([1]; IM serum sample no. 12418): − (Values >0.5 were considered positive (O.D. readings at 420 nm).) | O.D. ([1]; IM serum sample no. 12418): 0.463 | SCORE ([1]; IM serum sample no. 12498): + (Values >0.5 were considered positive (O.D. readings at 420 nm).) | SCORE ([1]; IM serum sample no. 12502): + (Values >0.5 were considered positive (O.D. readings at 420 nm).) | O.D. ([1]; IM serum sample no. 12502): 0.924 | SCORE ([1]; IM serum sample no. 12587): + (Values >0.5 were considered positive (O.D. readings at 420 nm).) | O.D. ([1]; IM serum sample no. 12587): 0.571 | SCORE ([1]; IM serum sample no. 12600): − (Values >0.5 were considered positive (O.D. readings at 420 nm).) | SCORE ([1]; IM serum sample no. 12611): − (Values >0.5 were considered positive (O.D. readings at 420 nm).) | O.D. ([1]; IM serum sample no. 12611): 0.259 | SCORE ([1]; IM serum sample no. 12801): + (Values >0.5 were considered positive (O.D. readings at 420 nm).) | O.D. ([1]; IM serum sample no. 12801): 0.601 | SCORE ([1]; IM serum sample no. 12828): − (Values >0.5 were considered positive (O.D. readings at 420 nm).) | O.D. ([1]; IM serum sample no. 12828): 0.375 | SCORE ([1]; IM serum sample no. 12829): − (Values >0.5 were considered positive (O.D. readings at 420 nm).) | O.D. ([1]; IM serum sample no. 12829): 0.257 | SCORE ([1]; IM serum sample no. 12836): + (Values >0.5 were considered positive (O.D. readings at 420 nm).) | SCORE ([1]; IM serum sample no. 12837): + (Values >0.5 were considered positive (O.D. readings at 420 nm).) | O.D. ([1]; IM serum sample no. 12837): 0.523 | SCORE ([1]; IM serum sample no. 12840): − (Values >0.5 were considered positive (O.D. readings at 420 nm).) | O.D. ([1]; IM serum sample no. 12840): 0.488 | SCORE ([1]; IM serum sample no. 12888): − (Values >0.5 were considered positive (O.D. readings at 420 nm).) | O.D. ([1]; IM serum sample no. 12888): 0.423 | SCORE ([1]; IM serum sample no. 12889): + (Values >0.5 were considered positive (O.D. readings at 420 nm).) | O.D. ([1]; IM serum sample no. 12889): 0.574 | SCORE ([1]; IM serum sample no. 12892): − (Values >0.5 were considered positive (O.D. readings at 420 nm).) | O.D. ([1]; IM serum sample no. 12892): 0.430 | SCORE ([1]; IM serum sample no. 12893): + (Values >0.5 were considered positive (O.D. readings at 420 nm).) | O.D. ([1]; IM serum sample no. 12893): 0.592 | SCORE ([1]; IM serum sample no. 12899): + (Values >0.5 were considered positive (O.D. readings at 420 nm).) | O.D. ([1]; IM serum sample no. 12899): 0.825 | SCORE ([1]; IM serum sample no. 12900): − (Values >0.5 were considered positive (O.D. readings at 420 nm).) | O.D. ([1]; IM serum sample no. 12900): 0.264 | SCORE ([1]; IM serum sample no. 13075): − (Values >0.5 were considered positive (O.D. readings at 420 nm).) | O.D. ([1]; IM serum sample no. 13075): 0.154 | SCORE ([1]; IM serum sample no. 13419): + (Values >0.5 were considered positive (O.D. readings at 420 nm).) | O.D. ([1]; IM serum sample no. 13419): 0.655 | SCORE ([1]; IM serum sample no. 13637): + (Values >0.5 were considered positive (O.D. readings at 420 nm).) | O.D. ([1]; IM serum sample no. 13637): 0.719 | SCORE ([1]; IM serum sample no. 13769): + (Values >0.5 were considered positive (O.D. readings at 420 nm).) | O.D. ([1]; IM serum sample no. 13769): 0.757 | SCORE ([1]; IM serum sample no. 13929): − (Values >0.5 were considered positive (O.D. readings at 420 nm).) | O.D. ([1]; IM serum sample no. 13929): 0.332 | SCORE ([1]; IM serum sample no. 14043): − (Values >0.5 were considered positive (O.D. readings at 420 nm).) | O.D. ([1]; IM serum sample no. 14043): 0.095 | SCORE ([1]; IM serum sample no. 14128): − (Values >0.5 were considered positive (O.D. readings at 420 nm).) | O.D. ([1]; IM serum sample no. 14128): 0.434 | SCORE ([1]; IM serum sample no. 14131): − (Values >0.5 were considered positive (O.D. readings at 420 nm).) | O.D. ([1]; IM serum sample no. 14131): 0.182 | IgG ELISA O.D. reading ([2]; serum no. 9817, May 26, 1988): 0.158 | IgG ELISA O.D. reading ([2]; serum no. 9820, May 31, 1988): 0.106 | IgG ELISA O.D. reading ([2]; serum no. 9829, Jun. 07, 1988): 0.135 | IgG ELISA O.D. reading ([2]; serum no. 9941, Jun. 20, 1988): 0.169 | IgG ELISA O.D. reading ([2]; serum no. 9983, Jun. 27, 1988): 0.645 | IgG ELISA O.D. reading ([2]; serum no. 10064, Jul. 18, 1988): 0.842 | IgG ELISA O.D. reading ([2]; serum no. 10237, Aug. 29, 1988): 0.260 | IgG ELISA O.D. reading ([2]; serum no. 10271, Sep. 20, 1988): 0.231 | IgG ELISA O.D. reading ([2]; serum no. 10488, Oct. 21, 1988): 0.217 | IgG ELISA O.D. reading ([2]; serum no. 10546, Nov. 15, 1988): 0.193
